# Measurements published in publication PMC10179080, “In Vivo and In Vitro Characterization of Close Analogs of Compound KA-11, a New Antiseizure Drug Candidate” (International Journal of Molecular Sciences, 2023).
# Marks after values point to notes of the source that are not given here.
# Tests used:
# [1] = system: motor performance in mice; conditions: i.p.; cited from earlier work
# [2] = system: Calcium Cav1.2 channel (verapamil site, antagonist radioligand); design: method as in PMID 30247871; conditions: 100 µM; cited from earlier work
# [3] = target: GABAA (α1,β2,γ2) (agonist radioligand) (Homo sapiens, UniProt P14867+P47870); design: method as in PMID 30247871; conditions: 100 µM; cited from earlier work
# [4] = system: neuromuscular strength in mice; design: method as in PMID 34074008; conditions: single administration 30 mg/kg; cited from earlier work
# CYP2D6 = target: T1, CYP2D6 (Homo sapiens, UniProt P10635); design: method as in PMID 30247871; conditions: cited from earlier work
# T1 construct: purchased Promega, Madison, WI, USA
# [5] = design: method as in PMID 26052884; conditions: cited from earlier work
# [6] = system: 6-Hz-induced psychomotor seizures in mice; conditions: i.p., cited from earlier work
# [7] = system: Calcium Cav1.2 channels (dihydropyridine site, antagonist radioligand); design: method as in PMID 26052884; conditions: 100 µM; cited from earlier work
# [8] = system: seizure susceptibility in mice; design: method as in PMID 28412310; conditions: 100 mg/kg; cited from earlier work
# [9] = design: method as in PMID 30247871; conditions: cited from earlier work
# [10] = system: tonic–clonic seizures in mice; conditions: i.p.; cited from earlier work
# [11] = system: Calcium Cav1.2 channels (diltiazem site, antagonist radioligand); design: method as in PMID 30247871; conditions: 100 µM; cited from earlier work
# [12] = system: PTZ-induced clonic seizures in mice; conditions: i.p., cited from earlier work
# [13] = system: Glutamate (AMPA, nonselective, antagonist radioligand, [3H] AMPA radioligand); design: method as in PMID 30247871; conditions: 100 µM; cited from earlier work
# [14] = target: T2, Calcium Cav2.2 channel (antagonist radioligand) (Rattus norvegicus, UniProt Q02294); design: method as in PMID 26052884; conditions: 100 µM; cited from earlier work
# T2 construct: rat cerebral cortex; tissue Eurofins Laboratories; host or cells: rat cerebral cortex
# [15] = target: T3, TRPV1 (VR1) (antagonist effect) (Homo sapiens, UniProt Q8NER1); test: TRPV1 antagonist functional assay (intracellular Ca2+, CHO cells); assay type: cell-based; conditions: CHO; 100 µM; not published before; read-out: % Inhibition of control specific binding (functional, antagonist effect)
# T3 construct: host or cells: CHO cells
# Description: (§1) Binding studies were carried out commercially in Eurofins Laboratories (Poitiers, France or New Taipei City, Taiwan).
# hepatoma HepG2 = system: hepatoma HepG2; design: method as in PMID 30247871; conditions: 10 µM; cited from earlier work
# Na^+ channel (site 2) = system: Na^+ channel (site 2); design: method as in PMID 26052884; conditions: 100 µM; cited from earlier work
# [16] = system: Glutamate (NMDA, nonselective, antagonist radioligand, [3H] Ifenprodil radioligand); design: method as in PMID 30247871; conditions: 100 µM; cited from earlier work
# hERG potassium channel = target: T4, hERG potassium channel (Homo sapiens, UniProt Q12809); test: Radioligand binding, potassium channel (hERG); conditions: human, human recombinant HEK-293 cells expressing hERG, KA-11 value not published before, read-out: % Inhibition of Control Specific Binding
# T4 construct: host or cells: HEK-293 cells
# Description: Dysfunction of both sodium and calcium ion channels is known to be one of the crucial reasons behind the pathogenesis of seizures. Consequently, these ion channels are molecular targets for several clinically important ASDs such as lacosamide, lamotrigine, carbamazepine, oxcarbazepine and compounds currently under preclinical and clinical studies. Thus, for KA-228 and KA-232, we tested herein their binding profile toward the aforementioned ion channels at concentrations of 10 and 100 µM (Table 3). […] Apart from in vitro studies focused on explaining the mechanism of action, KA-232 was additionally tested for its interaction with the potassium channel (hERG) which is recognized as one of the most important ‘off-targets’ responsible for harmful arrhythmogenic activity. Thus, the interaction of potential drug candidates with hERG must be excluded at an early stage of development.
# as §1
# CYP3A4 = target: T5, CYP3A4 (Homo sapiens, UniProt P08684); design: method as in PMID 26052884; conditions: 10 µM; cited from earlier work
# T5 construct: purchased Promega, Madison, WI, USA
# T5 sequence (P08684 whole entry): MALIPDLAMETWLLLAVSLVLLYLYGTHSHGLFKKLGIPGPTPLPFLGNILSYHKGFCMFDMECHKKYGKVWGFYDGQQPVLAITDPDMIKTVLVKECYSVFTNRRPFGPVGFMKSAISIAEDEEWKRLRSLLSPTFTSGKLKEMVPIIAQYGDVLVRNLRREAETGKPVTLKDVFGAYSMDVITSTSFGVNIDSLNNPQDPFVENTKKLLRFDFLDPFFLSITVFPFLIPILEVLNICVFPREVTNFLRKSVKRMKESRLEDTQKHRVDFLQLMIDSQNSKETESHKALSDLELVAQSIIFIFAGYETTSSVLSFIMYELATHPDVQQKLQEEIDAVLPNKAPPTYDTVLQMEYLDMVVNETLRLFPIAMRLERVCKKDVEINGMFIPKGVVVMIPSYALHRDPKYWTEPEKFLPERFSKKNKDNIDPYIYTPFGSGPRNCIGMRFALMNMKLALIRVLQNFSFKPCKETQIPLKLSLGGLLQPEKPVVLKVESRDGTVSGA
# T1 sequence (P10635 whole entry): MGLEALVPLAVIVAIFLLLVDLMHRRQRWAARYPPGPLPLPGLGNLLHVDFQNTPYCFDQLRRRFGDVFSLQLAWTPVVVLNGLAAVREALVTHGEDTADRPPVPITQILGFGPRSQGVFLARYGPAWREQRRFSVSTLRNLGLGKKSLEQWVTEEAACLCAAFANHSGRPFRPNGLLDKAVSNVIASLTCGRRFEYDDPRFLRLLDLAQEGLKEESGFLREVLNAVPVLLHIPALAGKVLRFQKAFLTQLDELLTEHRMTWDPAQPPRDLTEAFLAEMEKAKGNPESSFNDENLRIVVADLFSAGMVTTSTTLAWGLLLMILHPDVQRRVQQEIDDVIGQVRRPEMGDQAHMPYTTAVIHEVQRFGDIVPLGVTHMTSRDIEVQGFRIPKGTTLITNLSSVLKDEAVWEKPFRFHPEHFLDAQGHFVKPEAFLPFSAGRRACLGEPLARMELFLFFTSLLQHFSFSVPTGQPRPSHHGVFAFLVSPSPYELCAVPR
# T3 sequence (Q8NER1 whole entry): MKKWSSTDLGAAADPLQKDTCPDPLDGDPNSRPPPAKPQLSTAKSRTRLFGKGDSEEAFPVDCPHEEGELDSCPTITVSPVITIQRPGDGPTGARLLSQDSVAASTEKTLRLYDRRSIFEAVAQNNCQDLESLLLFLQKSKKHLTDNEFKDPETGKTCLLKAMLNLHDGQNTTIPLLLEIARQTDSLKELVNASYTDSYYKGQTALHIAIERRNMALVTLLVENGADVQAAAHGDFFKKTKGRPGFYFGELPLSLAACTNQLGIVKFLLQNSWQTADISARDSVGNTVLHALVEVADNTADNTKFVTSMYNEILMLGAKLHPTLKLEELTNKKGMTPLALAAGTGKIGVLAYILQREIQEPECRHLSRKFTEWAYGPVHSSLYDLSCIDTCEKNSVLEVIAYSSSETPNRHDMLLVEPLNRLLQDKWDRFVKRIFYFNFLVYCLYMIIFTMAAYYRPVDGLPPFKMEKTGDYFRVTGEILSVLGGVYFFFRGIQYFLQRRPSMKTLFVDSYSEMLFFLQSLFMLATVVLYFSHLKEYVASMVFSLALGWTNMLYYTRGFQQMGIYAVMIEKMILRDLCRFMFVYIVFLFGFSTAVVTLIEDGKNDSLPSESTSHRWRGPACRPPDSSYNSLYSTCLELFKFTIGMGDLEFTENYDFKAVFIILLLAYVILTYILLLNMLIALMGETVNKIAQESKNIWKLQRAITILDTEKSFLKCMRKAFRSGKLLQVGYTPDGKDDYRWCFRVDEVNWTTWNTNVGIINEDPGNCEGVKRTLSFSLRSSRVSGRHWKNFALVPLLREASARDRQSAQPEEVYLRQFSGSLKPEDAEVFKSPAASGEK
# T4 sequence (Q12809 whole entry): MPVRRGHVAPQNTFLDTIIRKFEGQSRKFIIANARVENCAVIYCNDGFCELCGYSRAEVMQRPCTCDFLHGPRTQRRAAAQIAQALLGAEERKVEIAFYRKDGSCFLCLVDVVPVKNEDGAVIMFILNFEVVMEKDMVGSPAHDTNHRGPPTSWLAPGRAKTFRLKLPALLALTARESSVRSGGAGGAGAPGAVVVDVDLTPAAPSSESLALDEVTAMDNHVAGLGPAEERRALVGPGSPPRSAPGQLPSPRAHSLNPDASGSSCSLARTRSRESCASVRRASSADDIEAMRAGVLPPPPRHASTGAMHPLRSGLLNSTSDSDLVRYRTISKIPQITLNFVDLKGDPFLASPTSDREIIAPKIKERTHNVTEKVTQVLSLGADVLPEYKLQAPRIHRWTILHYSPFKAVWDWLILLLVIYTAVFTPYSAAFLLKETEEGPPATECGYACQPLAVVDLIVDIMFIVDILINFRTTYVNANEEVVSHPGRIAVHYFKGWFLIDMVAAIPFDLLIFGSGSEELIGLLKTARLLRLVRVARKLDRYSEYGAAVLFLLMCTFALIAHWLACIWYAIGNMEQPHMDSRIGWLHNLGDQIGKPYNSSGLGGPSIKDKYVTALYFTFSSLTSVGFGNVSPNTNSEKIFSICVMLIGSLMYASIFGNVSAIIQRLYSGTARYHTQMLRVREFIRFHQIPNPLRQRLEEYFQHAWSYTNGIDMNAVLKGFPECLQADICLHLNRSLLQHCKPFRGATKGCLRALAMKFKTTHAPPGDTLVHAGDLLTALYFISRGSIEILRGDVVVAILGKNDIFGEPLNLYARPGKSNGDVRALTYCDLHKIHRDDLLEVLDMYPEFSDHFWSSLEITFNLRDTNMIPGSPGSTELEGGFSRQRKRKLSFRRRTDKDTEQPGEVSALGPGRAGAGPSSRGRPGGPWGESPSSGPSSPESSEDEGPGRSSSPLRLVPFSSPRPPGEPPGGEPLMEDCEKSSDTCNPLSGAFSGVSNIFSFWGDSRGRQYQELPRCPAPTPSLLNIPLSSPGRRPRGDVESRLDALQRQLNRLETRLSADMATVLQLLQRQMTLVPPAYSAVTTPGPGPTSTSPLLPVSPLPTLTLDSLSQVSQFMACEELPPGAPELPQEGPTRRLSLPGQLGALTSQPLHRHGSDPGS
# GABAA (α1,β2,γ2) (agonist radioligand), sequence (P14867 28-456): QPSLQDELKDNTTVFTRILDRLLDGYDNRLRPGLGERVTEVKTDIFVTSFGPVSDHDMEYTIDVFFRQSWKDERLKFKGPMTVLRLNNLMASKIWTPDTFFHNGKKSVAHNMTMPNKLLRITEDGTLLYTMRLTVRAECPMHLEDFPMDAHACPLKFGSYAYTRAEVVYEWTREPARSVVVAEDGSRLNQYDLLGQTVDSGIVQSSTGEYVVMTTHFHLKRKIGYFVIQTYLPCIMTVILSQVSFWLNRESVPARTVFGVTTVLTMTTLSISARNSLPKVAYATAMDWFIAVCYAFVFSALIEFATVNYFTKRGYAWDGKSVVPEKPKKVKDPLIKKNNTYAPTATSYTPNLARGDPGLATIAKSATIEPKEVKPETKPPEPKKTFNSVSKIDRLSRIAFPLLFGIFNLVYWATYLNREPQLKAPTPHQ
# GABAA (α1,β2,γ2) (agonist radioligand), sequence (P47870 25-512 limits assumed): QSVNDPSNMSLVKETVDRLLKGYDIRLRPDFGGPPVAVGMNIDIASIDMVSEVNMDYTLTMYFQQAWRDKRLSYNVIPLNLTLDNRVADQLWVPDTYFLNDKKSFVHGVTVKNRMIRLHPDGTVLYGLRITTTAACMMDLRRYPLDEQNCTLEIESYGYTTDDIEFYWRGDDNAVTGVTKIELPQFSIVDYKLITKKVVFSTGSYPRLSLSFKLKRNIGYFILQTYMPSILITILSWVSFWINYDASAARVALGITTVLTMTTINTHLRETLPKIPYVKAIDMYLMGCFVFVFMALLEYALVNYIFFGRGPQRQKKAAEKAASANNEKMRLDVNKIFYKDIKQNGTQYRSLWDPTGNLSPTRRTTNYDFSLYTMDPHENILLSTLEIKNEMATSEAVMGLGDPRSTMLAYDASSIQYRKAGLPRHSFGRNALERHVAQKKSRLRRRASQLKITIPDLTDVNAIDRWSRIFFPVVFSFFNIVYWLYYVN
# GABAA (α1,β2,γ2) (agonist radioligand), sequence (P18507 40-475 partner): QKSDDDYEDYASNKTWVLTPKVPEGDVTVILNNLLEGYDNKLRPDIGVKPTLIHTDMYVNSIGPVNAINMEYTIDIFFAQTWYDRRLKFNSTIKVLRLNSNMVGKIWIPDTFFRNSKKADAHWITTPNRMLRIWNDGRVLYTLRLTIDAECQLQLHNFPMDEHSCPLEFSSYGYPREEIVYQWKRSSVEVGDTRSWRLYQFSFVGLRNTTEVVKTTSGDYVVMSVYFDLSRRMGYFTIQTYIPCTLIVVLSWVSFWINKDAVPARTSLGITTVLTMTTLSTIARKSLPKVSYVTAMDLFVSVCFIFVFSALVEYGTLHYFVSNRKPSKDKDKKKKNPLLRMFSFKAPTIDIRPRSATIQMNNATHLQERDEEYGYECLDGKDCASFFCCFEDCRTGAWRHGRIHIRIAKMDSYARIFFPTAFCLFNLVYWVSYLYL
smiles,measurement,setting,value
CC(C(=O)N1CCN(c2cccc(C(F)(F)F)c2)CC1)N1C(=O)CCC1=O (stereo not shown) [KA-11],TD50,[1],>1500 mg/kg
same,% Inhibition of Control Specific Binding,[2],1.5 (100) ^# %
same,% Inhibition of Control Specific Binding,[3],−28.1 (100) ^# %
same,effect on muscle strength,[4],no statistically significant abnormalities
same,CYP2D6 activity (% of control ± SD),CYP2D6; 10 µM,122.30 ± 2.02 [9] % of control
same,effect on CYP2D6 activity,CYP2D6; at 1 and 10 µM,slight induction
same,Metabolic stability (% remaining after incubation with HLMs),[5],73.49 [6] %
same,ED50 6 Hz ± SD,[6]; 32 mA,21.0 ± 32.19 mg/kg
same,"TI (TD50/ED50), 6 Hz",[6],> 71.43
same,% Inhibition of Control Specific Binding,[7],64.2 (100) * %
same,"effect on thresholds for all studied endpoints (myoclonic twitch, generalized clonus, forelimb tonus)",[8],significant increase
same,PAMPA Pe ± SD,[9],27.1 ± 3.8 ^b [9] 10^−6 cm/s
same,ED50 MES ± SD,[10],88.4 ± 34.16 mg/kg
same,"TI (TD50/ED50), MES",[10],> 16.97
same,% Inhibition of Control Specific Binding,[11],44.9 (100) ^# %
same,ED50 PTZ ± SD,[12]; scPTZ,59.9 ± 19.55 mg/kg
same,"TI (TD50/ED50), PTZ",[12],> 25.04
same,% Inhibition of Control Specific Binding,[13],−2.9 (100) ^# %
same,% Inhibition of Control Specific Binding,[14],13.9 (100) * %
same,inhibition at 100 µM,[15],33%
same,HepG2 viability (% of control ± SD),hepatoma HepG2,99.78 ± 2.18 [9] % of control
same,% Inhibition of Control Specific Binding,Na^+ channel (site 2),37.4 (100) * %
same,% Inhibition of Control Specific Binding,[16],13.0 (100) ^# %
same,"inhibition at 60 min, 100 µM",hERG potassium channel,15%
same,CYP3A4 activity (% of control ± SD),CYP3A4,99.21 ± 4.9 [6] % of control
